In the test the target is CB1 (mutant) (Homo sapiens, UniProt P21554). In words: R-SAT functional receptor assay, CB1 (mutant, truncated after amino acid 417). It counts as cell-based. The following applies: R-SAT CB1; for IC50 / pIC50: receptor form (mutant or wild-type) not stated; for Emax / % Inhibition: receptor form not stated, relative to SR141716 (100%).
The mark [1] stands for this setting: Appendix A, read-out: pIC50 (converted).
The mark [2] stands for this setting: Appendix A, read-out: % Inhibition.

Each structure is given as a SMILES string. Like-named read-outs stand apart in the source and are kept apart here.

Sequence of CB1 (mutant) (P21554 1-417, change not shown): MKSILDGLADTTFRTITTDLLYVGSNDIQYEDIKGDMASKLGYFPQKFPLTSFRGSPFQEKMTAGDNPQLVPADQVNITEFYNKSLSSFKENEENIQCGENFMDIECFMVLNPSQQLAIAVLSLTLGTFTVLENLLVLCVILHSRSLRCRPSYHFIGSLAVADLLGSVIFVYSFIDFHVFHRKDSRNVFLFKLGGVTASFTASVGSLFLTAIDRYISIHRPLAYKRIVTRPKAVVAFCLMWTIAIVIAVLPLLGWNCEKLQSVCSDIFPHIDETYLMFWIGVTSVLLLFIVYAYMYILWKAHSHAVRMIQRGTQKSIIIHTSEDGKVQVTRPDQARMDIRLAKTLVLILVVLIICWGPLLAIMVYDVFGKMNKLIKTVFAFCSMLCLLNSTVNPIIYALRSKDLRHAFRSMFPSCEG

In the case of `O=C(NC1CCCCC1)c1ccc2c(c1)N=C(c1ccccc1Cl)c1ccccc1S2`, under setting [1], the IC50 was 251 nM. In addition, the Emax under setting [2] worked out at 67%.
In the case of `CONC(=O)c1ccc2c(c1)N=C(c1cccc(F)c1)c1ccccc1S2`, the IC50 under setting [1] was 1000 nM. Under setting [2], the Emax is 67%.
As to `CCCCNC(=O)c1ccc2c(c1)N=C(c1ccc(Cl)c(Cl)c1)c1ccccc1S2` [drawing 665], the Emax (read-out: % Inhibition, Appendix A) is 109%.
`O=C(NCc1ccccc1)c1ccc2c(c1)N=C(N1CCCCC1)c1ccccc1S2` [drawing 681]: the IC50 under setting [1] is 6.31 nM. Further, under setting [2], the Emax amounted to 110%.
In the case of `O=C(NCc1ccccc1)c1ccc2c(c1)N=C(c1ccccc1F)c1ccccc1S2` [drawing 1015], under setting [1], the IC50 was 25.1 nM. In addition, the Emax under setting [2] amounted to 96%.
Take `Cc1cccc(C2=Nc3cc(C(=O)NCC(C)C)ccc3Sc3ccccc32)n1` [drawing 809]: the IC50 under setting [1] was 10 nM. The Emax under setting [2] came to 82%.
For `O=C(NCCc1ccc(Cl)cc1)c1ccc2c(c1)N=C(N1CCC(F)(F)CC1)c1ccccc1S2` [drawing 628], the IC50 under setting [1] is 63.1 nM. The Emax under setting [2] is 99%.
For the compound `CC(C)CNC(=O)c1ccc2c(c1)N=C(c1cccc(F)c1)c1ccccc1S2` [drawing 629], under setting [1], the IC50 is 5.01 nM. Moreover, the Emax under setting [2] was found to be 112%.
Regarding `O=C(NCc1ccco1)c1ccc2c(c1)N=C(c1ccc(Cl)cc1)c1ccccc1S2` [drawing 753], under setting [1], the IC50 was 7.94 nM. Besides, under setting [2], the Emax amounted to 94%.
For the compound `COc1ccccc1C1=Nc2cc(C(=O)NCC(C)C)ccc2Sc2ccccc21`, the IC50 under setting [1] was 158 nM. Also, the Emax under setting [2] was 91%.
In the case of `O=C(NCc1cccc(Cl)c1)c1ccc2c(c1)N=C(c1ccccc1)c1ccccc1S2` [drawing 899], the IC50 under setting [1] is 15.8 nM. Besides, the Emax under setting [2] was determined as 107%.
`Clc1ccc(C2=Nc3cc(-c4ncc[nH]4)ccc3Sc3ccccc32)cc1` [drawing 846]: under setting [1], the IC50 was 158 nM. Besides, the Emax under setting [2] amounted to 109%.
For `O=C(NN1CCCC1)c1ccc2c(c1)N=C(c1cccc(F)c1)c1ccccc1S2`, under setting [2], the Emax amounted to 67%.
As for `CCCCNC(=O)c1ccc2c(c1)N=C(C#C[Si](C)(C)C)c1ccccc1S2`, under setting [1], the IC50 was 631 nM. Besides, the Emax under setting [2] stood at 64%.
Taken in the same sequence, the figures for `COCCNC(=O)c1ccc2c(c1)N=C(c1cccc(Cl)c1)c1ccccc1S2` [drawing 849] were 12.6 nM and 110%.
Taken in the same sequence, the figures for `O=C(NCc1ccccc1)c1ccc2c(c1)N=C(c1ccc(F)cc1)c1ccccc1S2` [drawing 759] were 10 nM and 96%.
As for `O=C(NCc1cccc(Cl)c1)c1ccc2c(c1)N=C(N1CCC(F)CC1)c1ccccc1S2` [drawing 679], the IC50 under setting [1] is 6.31 nM. Moreover, the Emax under setting [2] was 108%.
Turning to `O=C(NCCc1ccccc1)c1ccc2c(c1)N=C(c1ccc(Cl)cc1)c1ccccc1S2` [drawing 743], the IC50 under setting [1] was 7.94 nM. For the same compound, the Emax under setting [2] was found to be 110%.
`O=C(NN1CCCCC1)c1ccc2c(c1)N=C(C1CCCCC1)c1ccccc1S2` [drawing 987]: the “% Inhibition” value (Appendix A) is recorded as 101%.
For the compound `CCONC(=O)c1ccc2c(c1)N=C(c1ccc(Cl)s1)c1ccccc1S2`, under setting [1], the IC50 is 50.1 nM. The Emax under setting [2] came to 97%.
In the case of `CCCCNC(=O)c1ccc2c(n1)N=C(c1ccccc1)c1ccccc1S2`, under setting [1], the IC50 was 12.6 nM. The Emax under setting [2] was determined as 98%.
With `CC(C)CNC(=O)c1ccc2c(c1)N=C(c1ccc(Cl)cc1)c1ccccc1S2` [drawing 741], the Emax under setting [2] turned out to be 123%. Also, under “pIC50, Appendix A”, the IC50 was 7.94 nM.
In the case of `CCCC1=Nc2cc(C(=O)NCCCN3CCC(c4cc(Cl)ccc4C)CC3)ccc2Sc2ccccc21`, the IC50 under setting [1] was 316 nM. The Emax under setting [2] was 117%.
Regarding `O=C(NN1CCCCCC1)c1ccc2c(c1)N=C(c1cccc(F)c1)c1ccccc1S2` [drawing 883], the “% Inhibition” value (Appendix A) is given as 96%. In addition, under “pIC50, Appendix A”, the IC50 was 15.8 nM.
With `O=C(NCCc1cccc(Cl)c1)c1ccc2c(c1)N=C(c1cccc(Cl)c1)c1ccccc1S2` [drawing 779], the IC50 under setting [1] is 10 nM. For the same compound, the Emax under setting [2] stood at 107%.
For the setting “Appendix A”, `CCONC(=O)c1ccc2c(c1)N=C(c1ccccc1Cl)c1ccccc1S2` gave a pIC50 of 1.0. Further, the Emax under setting [2] stood at 19%.
For `COc1ccccc1C1=Nc2cc(C(=O)NC3CCCCC3)ccc2Sc2ccccc21`, the IC50 under setting [1] is 316 nM. For the same compound, the Emax under setting [2] stood at 72%.
The corresponding values for `O=C(NC1CCCCC1)c1ccc2c(c1)N=C(c1cccc(Cl)c1)c1ccccc1S2` [drawing 843] are 12.6 nM and 99%.
For the compound `O=C(NC1CCCCC1)c1ccc2c(c1)N=C(c1ccc(F)cc1)c1ccccc1S2` [drawing 951], under setting [1], the IC50 is 20 nM. For the same compound, under “Appendix A”, the “% Inhibition” value is on record as 108%.
On to `O=C(NCCc1ccc(Cl)cc1)c1ccc2c(c1)N=C(c1ccccc1)c1ccccc1S2` [drawing 733], for which, under setting [1], the IC50 is 7.94 nM. Besides, the Emax under setting [2] amounted to 108%.
As to `O=C(NCCC(F)(F)F)c1ccc2c(c1)N=C(c1ccc(Cl)cc1)c1ccccc1S2` [drawing 705], under setting [2], the Emax came out at 91%. Moreover, for the setting “pIC50, Appendix A”, the IC50 is 7.94 nM.
For `CCCC1=Nc2cc(C(=O)NCC(OCC)OCC)ccc2Sc2ccccc21`, the IC50 under setting [1] is 39.8 nM. Besides, the Emax under setting [2] worked out at 107%.
As for `Cc1csc(CNC(=O)c2ccc3c(c2)N=C(c2ccc(Cl)s2)c2ccccc2S3)c1` [drawing 655], the IC50 under setting [1] was 6.31 nM. Moreover, the Emax under setting [2] amounted to 94%.
For `O=C(NC1CCCCNC1=O)c1ccc2c(c1)N=C(c1ccc(F)cc1)c1ccccc1S2` (stereo not shown), the IC50 under setting [1] is 251 nM. Under setting [2], the Emax was determined as 83%.
On to `O=C(NCc1cccnc1)c1ccc2c(c1)N=C(NCc1ccc(Cl)cc1)c1ccccc1S2`, for which the IC50 under setting [1] was 501 nM. Further, the Emax under setting [2] stood at 76%.
With `O=C(NCc1cccc(Cl)c1)c1ccc2c(c1)N=C(c1ccc(F)cc1)c1ccccc1[S+]2[O-]` (stereo not shown) [drawing 670], under setting [2], the Emax came out at 89%.
With `CC(NC(=O)c1ccc2c(c1)N=C(c1ccccc1F)c1ccccc1S2)c1ccccc1` (stereo not shown) [drawing 748], the IC50 under setting [1] was 79.4 nM. Further, the Emax under setting [2] stood at 69%.
Taken in the same sequence, the figures for `CC(C)NC(=O)c1ccc2c(c1)N=C(c1ccccn1)c1ccccc1S2` were 794 nM and 60%.
With `O=C(NN1CCCCC1)c1ccc2c(c1)N=C(c1ccc(F)cn1)c1ccccc1S2` [drawing 660], the IC50 under setting [1] was 63.1 nM. For the same compound, the Emax under setting [2] turned out to be 92%.
For the compound `CCCCNC(=O)c1ccc2c(c1)N=C(c1ccc(Cl)s1)c1cc(Cl)ccc1S2` [drawing 995], the IC50 under setting [1] was 25.1 nM. Further, the Emax under setting [2] was determined as 107%.
The corresponding values for `O=C(NCc1ccccc1)c1ccc2c(c1)N=C(c1ccc(Cl)cc1)c1ccccc1S2` [drawing 647] are 5.01 nM and 105%.
Turning to `O=C(NCc1ccncc1)c1ccc2c(c1)N=C(c1ccc(Cl)cc1)c1ccccc1S2` [drawing 696], the IC50 under setting [1] was 79.4 nM. Under setting [2], the Emax worked out at 105%.
As to `CCCCN(C)C(=O)c1ccc2c(c1)N=C(c1ccc(OC)cc1)c1ccccc1S2`, under setting [1], the IC50 is 100 nM. Besides, the Emax under setting [2] was found to be 97%.
Take `CC(C)CNC(=O)c1ccc2c(c1)N=C(c1ccc(Cl)cn1)c1ccc(Cl)cc1S2` [drawing 1172]: the Emax under setting [2] was found to be 27%.
Turning to `Cc1cccc(C2=Nc3cc(C(=O)NCc4ccc(C)o4)ccc3Sc3ccccc32)n1` [drawing 805], under setting [1], the IC50 is 10 nM. Moreover, the Emax under setting [2] amounted to 96%.
As for `O=C(NCc1cccc(Cl)c1)c1ccc2c(c1)N=C(N1CCCCC1)c1cc(F)ccc1S2` [drawing 649], the IC50 under setting [1] was 5.01 nM. Under setting [2], the Emax is 107%.
For the compound `O=C(NN1CCCCCC1)c1ccc2c(c1)N=C(c1ccc(Cl)cc1F)c1ccccc1S2` [drawing 867], the IC50 under setting [1] is 15.8 nM. In addition, under setting [2], the Emax was found to be 102%.
Take `CC(NC(=O)c1ccc2c(c1)N=C(C1CCCCC1)c1ccccc1S2)c1ccccc1` (stereo not shown) [drawing 674]: for the setting “Appendix A”, the pIC50 was 7.2 and the “% Inhibition” value was found to be 113%.
Consider `O=C(NN1CCCCC1)c1ccc2c(c1)N=C(c1ccccc1)c1ccccc1S2` [drawing 897], for which, under setting [1], the IC50 was 15.8 nM. Besides, under setting [2], the Emax was 115%.
Turning to `CCONC(=O)c1ccc2c(c1)N=C(c1ncccc1C)c1ccccc1S2`, the pIC50 (Appendix A) came out at 1.0. In addition, under setting [2], the Emax was 21%.
Take `O=C(NCCc1cccnc1)c1ccc2c(c1)N=C(c1ccc(Cl)cc1)c1ccccc1S2` [drawing 638]: under setting [1], the IC50 is 63.1 nM. Under setting [2], the Emax turned out to be 116%.
Taken in the same sequence, the figures for `CCCC1=Nc2cc(C(=O)NCCOC)ccc2Sc2ccccc21` were 200 nM and 107%.
Consider `Cc1ccc(CNC(=O)c2ccc3c(c2)N=C(c2ccc(Cl)cc2F)c2ccccc2S3)o1` [drawing 1039], for which the IC50 under setting [1] was 31.6 nM. Moreover, under setting [2], the Emax is 76%.
Take `O=C(NCCc1cccc(Cl)c1)c1ccc2c(c1)N=C(C1CCCCC1)c1ccccc1S2` [drawing 1001]: the IC50 under setting [1] was 25.1 nM. For the same compound, the Emax under setting [2] came out at 102%.
Take `CCCNC(=O)c1ccc2c(c1)N=C(c1ccc(F)cc1)c1ccccc1S2` [drawing 841]: the IC50 under setting [1] was 12.6 nM. Under setting [2], the Emax was 95%.
Take `O=C(NCc1cccnc1)c1ccc2c(c1)N=C(c1ccccc1Cl)c1ccccc1S2`: the Emax under setting [2] was 72%.
With `O=C(NN1CCCCC1)c1ccc2c(c1)N=C(c1ccc(Cl)cc1)c1ccccc1S2` [drawing 914], under “Appendix A”, the “% Inhibition” value is 51%.
With `O=C(NCCc1ccccc1)c1ccc2c(c1)N=C(c1ccccc1F)c1ccccc1S2` [drawing 600], the IC50 under setting [1] was 50.1 nM. Also, under setting [2], the Emax is 98%.
Consider `CCCC1=Nc2cc(C(=O)NCCN3CCOCC3)ccc2Sc2ccccc21`, for which, under setting [2], the Emax came to 98%.
Turning to `CCCCNC(=O)c1ccc2c(c1)N=C(c1ccc(Cl)s1)c1ccc(Cl)cc1S2` [drawing 1109], the IC50 under setting [1] is 39.8 nM. Also, under setting [2], the Emax came out at 104%.

Values taken from patent US20080090805A1, “CB-1 MODULATING COMPOUNDS AND THEIR USE” (ACADIA PHARMACEUTICALS INC., priority 2005, published 2008).
